Assay results taken from patent publication US20260242402A1, “PRODRUGS OF STAT3 INHIBITORS” (Tvardi Operating Company, Inc., priority 2022, published 2026).
In brackets after ≈: the same amount, converted by molar mass. Counter-ions that a name gives are not always drawn. Like-named read-outs stand apart in the source and are kept apart here.

Tests used:
[1] = male, SD, rat, in vivo, po
physchem [2] = details: thermodynamic from solid
[3] = male, cynomolgus monkey, in vivo, po
[4] = not given; remark: listed apart in the source
physchem [5] = details: buffer, pH 7.4
in vitro = details: human, plasma
[6] = Pharmacokinetics in monkeys (TTI-101 in plasma by LC-MS/MS); details: male, cynomolgus monkey, iv, 26 mg/kg
[7] = Solubility of TTI-101 as described in the text; assay type: physicochemical; details: aqueous solutions
in vivo = details: rat
[8] = pH 2, aqueous buffer, Solubility (pH = 2.0)

With `COc1ccc(S(=O)(=O)Nc2cc(-c3c(O)ccc4ccccc34)c(OP(=O)(O)O)c3ccccc23)cc1` [Compound 9, 2-hydroxy-4′-((4-methoxyphenyl)sulfonamido)-[1,2′-binaphthalen]-1′-yl dihydrogen phosphate] the “Aqueous Stability (pH = 2.0)” value (pH 2) was “Stable”, the “Aqueous Stability (pH = 3.5)” value (pH 3.5) was “Stable” and the “Aqueous Stability (pH = 7.4) (in words)” value (pH 7.4) was “Stable”. The “F % (bioavailability, calculated on dose levels)” value [1] was 58.5%, the T1/2 [1] was 2.0 ± 0.4 h and the Tmax [1] was 1.8 ± 1.7 h. For the same compound, the AUClast ([1]; 22.4 mg/kg) was 37775 ± 14217 ng·h/mL, the solubility (physchem [2]; [8]) was 1530 µg/mL and the solubility (physchem [2]; pH 7.4, aqueous buffer, Solubility (pH = 7.4)) was 6160 µg/mL. The “F % (bioavailability, calculated on dose levels)” value [3] was 81.3%, the T1/2 [3] was 6.7 ± 1.4 h and the Tmax [3] was 1.7 ± 0.6 h. It also gave an AUClast ([3]; 24.3 mg/kg) of 75704 ± 14050 ng·h/mL.

In the case of `COc1ccc(S(=O)(=O)Nc2cc3c(c4ccccc24)OP(=O)(O)Oc2ccc4ccccc4c2-3)cc1` [Compound 9A, N-((6)-6-hydroxy-6-oxidodinaphtho[1,2-d:1′,2′-f][1,3,2]dioxaphosphepin-15-yl)-4-methoxybenzenesulfonamide], the “Aqueous Stability (pH = 2.0)” value (pH 2) is reported as “Stable”, the “Aqueous Stability (pH = 3.5)” value (pH 3.5) is reported as “Stable” and the “Aqueous Stability (pH = 7.4) (in words)” value (pH 7.4) is reported as “Stable”. The solubility (physchem [2]; [8]) was 56 µg/mL (≈ 105 µM), the “Solubility (pH = 7.4)” value [4] was 37, 12 ug/mL and the “F % (bioavailability, calculated on dose levels)” value [3] was 6.7%. The Tmax [3] was 8.0 ± 0 h and the AUClast ([3]; 53.5 mg/kg) was 5203 + 1048 ng*h/mL.

For `CNCCCN(C)C(=O)Oc1c(-c2c(O)ccc3ccccc23)cc(NS(=O)(=O)c2ccc(OC)cc2)c2ccccc12` [Compound 4, 2-hydroxy-4′-((4-methoxyphenyl)sulfonamido)-[1,2′-binaphthalen]-1′-yl methyl(3-(methylamino)propyl)carbamate hydrochloride], the “Aqueous Stability (pH = 2.0)” value (phosphate buffer pH 2.0, 37° C., up to 1440 minutes) was “Stable”, the “Aqueous Stability (pH = 3.5)” value (phosphate buffer pH 3.5, 37° C., up to 1440 minutes) was “Stable” and the “Aqueous Stability (pH = 7.4) (in words)” value (phosphate buffer pH 7.4, 37° C., up to 1440 minutes) was “Unstable;”. For the same compound, the half-life at 2 µM (physchem [5]) was 1 h and the half-life at 2 µM (in vitro) was 4.3 min.

For `COc1ccc(S(=O)(=O)Nc2cc(-c3c(O)ccc4ccccc34)c(O)c3ccccc23)cc1` [TTI-101, N-(1′,2-dihydroxy-[1,2′-binaphthalen]-4′-yl)-4-methoxybenzenesulfonamide], the AUC(0-t) [6] was 116000 ± 7170 ng·h/mL, the half-life [6] was 2.4 ± 0.1 h and the “Solubility (in words)” value [7] was “insoluble in aqueous solutions”. The AUC(0-t) (in vivo; male, SD, iv, 21.5 mg/kg) was 72400 ± 15100 ng·h/mL, the half-life (in vivo; male, SD, iv, 21.5 mg/kg) was 2.8 ± 0.6 h and the bioavailability (in vivo; po) was 40.4%.
